Measurements from PubChem BioAssay (NCI).
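Method: 48-hour compound exposure of cells in 96-well plates, five concentrations, linear interpolation of endpoints. Abbreviation: GI50, concentration required for 50% inhibition of growth. TGI: total growth inhibition.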

Experiments:
Assay in all cases: NCI anticancer screen, dose series, 48 h
KM12 colon = system: KM12 colon
LOX IMVI melanoma = system: LOX IMVI melanoma
ACHN renal = system: ACHN renal
HCT-116 colon = system: HCT-116 colon
EKVX NSCLC = system: EKVX NSCLC
MDA-N = system: MDA-N
SNB-19 CNS = system: SNB-19 CNS
DU-145 prostate = system: DU-145 prostate
786-0 renal = system: 786-0 renal
T-47D breast = system: T-47D breast
NCI-H460 lung = system: NCI-H460 lung
SK-OV-3 ovarian = system: SK-OV-3 ovarian
MCF7 breast = system: MCF7 breast
UACC-257 melanoma = system: UACC-257 melanoma
A498 renal = system: A498 renal
UACC-62 melanoma = system: UACC-62 melanoma
HOP-62 NSCLC = system: HOP-62 NSCLC
MDA-MB-231 breast = system: MDA-MB-231 breast
U251 CNS = system: U251 CNS
UO-31 renal = system: UO-31 renal
SF-295 CNS = system: SF-295 CNS
BT-549 breast = system: BT-549 breast
SN12C renal = system: SN12C renal
SF-539 CNS = system: SF-539 CNS
OVCAR-8 ovarian = system: OVCAR-8 ovarian
SK-MEL-2 melanoma = system: SK-MEL-2 melanoma
NCI/ADR-RES ovarian = system: NCI/ADR-RES ovarian
IGROV1 ovarian = system: IGROV1 ovarian
HCT-15 colon = system: HCT-15 colon
COLO 205 colon = system: COLO 205 colon
M14 melanoma = system: M14 melanoma
RXF 393 renal = system: RXF 393 renal
SNB-75 CNS = system: SNB-75 CNS
OVCAR-3 ovarian = system: OVCAR-3 ovarian
MDA-MB-435 = system: MDA-MB-435
SF-268 CNS = system: SF-268 CNS
CAKI-1 renal = system: CAKI-1 renal
HL-60(TB) leukemia = system: HL-60(TB) leukemia
NCI-H23 lung = system: NCI-H23 lung
MALME-3M melanoma = system: MALME-3M melanoma
OVCAR-4 ovarian = system: OVCAR-4 ovarian
TK-10 renal = system: TK-10 renal
HT29 colon = system: HT29 colon
SK-MEL-28 melanoma = system: SK-MEL-28 melanoma
NCI-H522 lung = system: NCI-H522 lung
CCRF-CEM leukemia = system: CCRF-CEM leukemia
NCI-H226 lung = system: NCI-H226 lung
HS 578T breast = system: HS 578T breast
OVCAR-5 ovarian = system: OVCAR-5 ovarian
SW-620 colon = system: SW-620 colon
PC-3 prostate = system: PC-3 prostate
HOP-92 NSCLC = system: HOP-92 NSCLC
SK-MEL-5 melanoma = system: SK-MEL-5 melanoma
K-562 leukemia = system: K-562 leukemia
MOLT-4 leukemia = system: MOLT-4 leukemia
SR leukemia = system: SR leukemia
RPMI-8226 leukemia = system: RPMI-8226 leukemia
HCC-2998 colon = system: HCC-2998 colon
A549 NSCLC = system: A549 NSCLC

C[C@@]12C[C@@H](c3ccccc3O1)N1CCCCSC1=N2
TGI (KM12 colon): > 100 µM | TGI (LOX IMVI melanoma): > 100 µM | TGI (ACHN renal): > 100 µM | TGI (HCT-116 colon): > 100 µM | TGI (EKVX NSCLC): > 100 µM | TGI (MDA-N): > 100 µM | TGI (SNB-19 CNS): > 100 µM | TGI (DU-145 prostate): > 100 µM | TGI (786-0 renal): > 100 µM | TGI (T-47D breast): > 100 µM | TGI (NCI-H460 lung): > 100 µM | TGI (SK-OV-3 ovarian): > 100 µM | TGI (MCF7 breast): > 100 µM | TGI (UACC-257 melanoma): > 100 µM | TGI (A498 renal): > 100 µM | TGI (UACC-62 melanoma): > 100 µM | TGI (HOP-62 NSCLC): > 100 µM | TGI (MDA-MB-231 breast): > 100 µM | TGI (U251 CNS): > 100 µM | TGI (UO-31 renal): > 100 µM | TGI (SF-295 CNS): > 100 µM | TGI (BT-549 breast): > 100 µM | TGI (SN12C renal): > 100 µM | TGI (SF-539 CNS): > 100 µM | TGI (OVCAR-8 ovarian): > 100 µM | TGI (SK-MEL-2 melanoma): > 100 µM | TGI (NCI/ADR-RES ovarian): > 100 µM | TGI (IGROV1 ovarian): > 100 µM | TGI (HCT-15 colon): > 100 µM | TGI (COLO 205 colon): > 100 µM | TGI (M14 melanoma): > 100 µM | TGI (RXF 393 renal): > 100 µM | TGI (SNB-75 CNS): > 100 µM | TGI (OVCAR-3 ovarian): > 100 µM | TGI (MDA-MB-435): > 100 µM | TGI (SF-268 CNS): > 100 µM | TGI (CAKI-1 renal): > 100 µM | TGI (HL-60(TB) leukemia): > 100 µM | TGI (NCI-H23 lung): > 100 µM | TGI (MALME-3M melanoma): > 100 µM | TGI (OVCAR-4 ovarian): > 100 µM | TGI (TK-10 renal): > 100 µM | TGI (HT29 colon): > 100 µM | TGI (SK-MEL-28 melanoma): > 100 µM | TGI (NCI-H522 lung): > 100 µM | TGI (CCRF-CEM leukemia): > 100 µM | TGI (NCI-H226 lung): > 100 µM | TGI (HS 578T breast): > 100 µM | TGI (OVCAR-5 ovarian): > 100 µM | TGI (SW-620 colon): > 100 µM | TGI (PC-3 prostate): > 100 µM | TGI (HOP-92 NSCLC): > 100 µM | TGI (SK-MEL-5 melanoma): > 100 µM | TGI (K-562 leukemia): > 100 µM | TGI (MOLT-4 leukemia): > 100 µM | TGI (SR leukemia): > 100 µM | TGI (RPMI-8226 leukemia): > 100 µM | TGI (HCC-2998 colon): > 100 µM

Cc1ccc2c(=O)cc(-c3ccc(F)cc3)[nH]c2n1
TGI (KM12 colon): > 100 µM | TGI (LOX IMVI melanoma): > 100 µM | TGI (ACHN renal): > 100 µM | TGI (A549 NSCLC): > 100 µM | GI50 (HCT-116 colon): 33.9 µM | TGI (HCT-116 colon): > 100 µM | TGI (EKVX NSCLC): > 100 µM | TGI (MDA-N): 32.1 µM | TGI (SNB-19 CNS): > 100 µM | TGI (DU-145 prostate): > 100 µM | GI50 (786-0 renal): 42.2 µM | TGI (786-0 renal): > 100 µM | TGI (T-47D breast): > 100 µM | GI50 (NCI-H460 lung): 33.6 µM | TGI (NCI-H460 lung): > 100 µM | TGI (SK-OV-3 ovarian): > 100 µM | TGI (MCF7 breast): > 100 µM | TGI (UACC-257 melanoma): > 100 µM | TGI (A498 renal): 66.6 µM | TGI (UACC-62 melanoma): > 100 µM | TGI (HOP-62 NSCLC): > 100 µM | TGI (MDA-MB-231 breast): > 100 µM | GI50 (U251 CNS): 37.3 µM | TGI (U251 CNS): > 100 µM | TGI (UO-31 renal): > 100 µM | GI50 (SF-295 CNS): 36.8 µM | TGI (SF-295 CNS): > 100 µM | TGI (BT-549 breast): > 100 µM | TGI (SN12C renal): > 100 µM | TGI (SF-539 CNS): > 100 µM | TGI (OVCAR-8 ovarian): > 100 µM | TGI (SK-MEL-2 melanoma): > 100 µM | TGI (NCI/ADR-RES ovarian): 86.9 µM | TGI (IGROV1 ovarian): > 100 µM | TGI (HCT-15 colon): > 100 µM | TGI (COLO 205 colon): 47.9 µM | TGI (M14 melanoma): > 100 µM | TGI (SNB-75 CNS): 49.6 µM | GI50 (OVCAR-3 ovarian): 32.2 µM | TGI (OVCAR-3 ovarian): > 100 µM | GI50 (MDA-MB-435): 5.87 µM | TGI (MDA-MB-435): 22.2 µM | TGI (SF-268 CNS): > 100 µM | TGI (CAKI-1 renal): > 100 µM | TGI (HL-60(TB) leukemia): 34.3 µM | TGI (NCI-H23 lung): > 100 µM | TGI (MALME-3M melanoma): > 100 µM | TGI (OVCAR-4 ovarian): > 100 µM | TGI (TK-10 renal): > 100 µM | TGI (HT29 colon): > 100 µM | TGI (SK-MEL-28 melanoma): > 100 µM | TGI (NCI-H522 lung): 84.7 µM | TGI (CCRF-CEM leukemia): > 100 µM | TGI (NCI-H226 lung): > 100 µM | TGI (HS 578T breast): > 100 µM | TGI (OVCAR-5 ovarian): > 100 µM | TGI (SW-620 colon): > 100 µM | GI50 (PC-3 prostate): 20.9 µM | TGI (PC-3 prostate): 88.1 µM | TGI (HOP-92 NSCLC): 86.5 µM | GI50 (SK-MEL-5 melanoma): 31.3 µM | TGI (SK-MEL-5 melanoma): > 100 µM | TGI (K-562 leukemia): 83 µM | TGI (MOLT-4 leukemia): > 100 µM | TGI (SR leukemia): 34.4 µM | TGI (RPMI-8226 leukemia): 95.1 µM | TGI (HCC-2998 colon): > 100 µM

NC(=O)C(c1ccccc1)N1OC2C(=O)N(c3ccccc3)C(=O)C2C1c1c2ccccc2c(Cl)c2ccccc12 (centres undefined)
TGI (KM12 colon): > 100 µM | TGI (LOX IMVI melanoma): > 100 µM | TGI (ACHN renal): > 100 µM | TGI (A549 NSCLC): > 100 µM | TGI (HCT-116 colon): > 100 µM | TGI (EKVX NSCLC): > 100 µM | TGI (MDA-N): > 100 µM | TGI (SNB-19 CNS): > 100 µM | TGI (DU-145 prostate): > 100 µM | TGI (786-0 renal): > 100 µM | TGI (T-47D breast): > 100 µM | TGI (SK-OV-3 ovarian): > 100 µM | TGI (MCF7 breast): > 100 µM | TGI (UACC-62 melanoma): > 100 µM | TGI (HOP-62 NSCLC): > 100 µM | TGI (MDA-MB-231 breast): > 100 µM | TGI (U251 CNS): > 100 µM | TGI (UO-31 renal): > 100 µM | TGI (SF-295 CNS): > 100 µM | TGI (BT-549 breast): > 100 µM | TGI (SN12C renal): > 100 µM | TGI (SF-539 CNS): > 100 µM | TGI (OVCAR-8 ovarian): > 100 µM | TGI (SK-MEL-2 melanoma): > 100 µM | TGI (NCI/ADR-RES ovarian): > 100 µM | TGI (IGROV1 ovarian): > 100 µM | TGI (HCT-15 colon): > 100 µM | TGI (COLO 205 colon): > 100 µM | TGI (M14 melanoma): > 100 µM | TGI (RXF 393 renal): > 100 µM | TGI (SNB-75 CNS): > 100 µM | TGI (OVCAR-3 ovarian): > 100 µM | TGI (MDA-MB-435): > 100 µM | TGI (SF-268 CNS): > 100 µM | TGI (CAKI-1 renal): > 100 µM | TGI (HL-60(TB) leukemia): > 100 µM | TGI (NCI-H23 lung): > 100 µM | TGI (MALME-3M melanoma): > 100 µM | TGI (OVCAR-4 ovarian): > 100 µM | TGI (HT29 colon): > 100 µM | TGI (SK-MEL-28 melanoma): > 100 µM | TGI (NCI-H522 lung): > 100 µM | TGI (CCRF-CEM leukemia): > 100 µM | TGI (NCI-H226 lung): > 100 µM | TGI (HS 578T breast): > 100 µM | TGI (OVCAR-5 ovarian): > 100 µM | TGI (SW-620 colon): > 100 µM | TGI (PC-3 prostate): > 100 µM | TGI (HOP-92 NSCLC): > 100 µM | TGI (SK-MEL-5 melanoma): > 100 µM | TGI (K-562 leukemia): > 100 µM | TGI (MOLT-4 leukemia): > 100 µM | TGI (SR leukemia): > 100 µM | TGI (RPMI-8226 leukemia): > 100 µM
